From ChEMBL document CHEMBL5352486, “Design, synthesis, in vitro - In vivo biological evaluation of novel thiazolopyrimidine compounds as antileishmanial agent with PTR1 inhibition” (Eur J Med Chem, 2023)
In brackets after ≈: the same amount, converted by molar mass.

Columns and labels:
Leishmania infantum [1] = assay: Antileishmanial activity against Leishmania infantum MHOM/TN/1980/IPT1 incubated for 48 hrs by XTT method; format: functional, organism-based; conditions: MHOM/TN/1980/IPT1, 48 h
Leishmania infantum [2] = assay: Antileishmanial activity against Leishmania infantum MHOM/TN/1980/IPT1 incubated for 48 hrs by Neubauer hemocytometer analysis; format: functional, organism-based; conditions: MHOM/TN/1980/IPT1, 48 h
Leishmania tropica [3] = assay: Antileishmanial activity against Leishmania tropica MHOM/A7/1974/SAF-K27 incubated for 48 hrs by XTT method; format: functional, organism-based; conditions: MHOM/A7/1974/SAF-K27, 48 h
Leishmania tropica [4] = assay: Antileishmanial activity against Leishmania tropica MHOM/A7/1974/SAF-K27 incubated for 48 hrs by Neubauer hemocytometer analysis; format: functional, organism-based; conditions: MHOM/A7/1974/SAF-K27, 48 h
RAW264.7 = assay: (§1) Cytotoxicity against mouse RAW264.7 cells by alamar blue method; format: toxicity, cell-based; conditions: raw264.7
[5] = as §1; format: toxicity, cell-based; conditions: mouse, RAW264.7 cells
Pteridine reductase 1 = biological target: T1, Pteridine reductase 1 (Leishmania major, UniProt Q01782); assay: Inhibition of recombinant Leishmania major PTR1 expressed in Escherichia coli BL21 using folic acid as substrate in presence of NADPH
T1 sequence (Q01782 whole entry): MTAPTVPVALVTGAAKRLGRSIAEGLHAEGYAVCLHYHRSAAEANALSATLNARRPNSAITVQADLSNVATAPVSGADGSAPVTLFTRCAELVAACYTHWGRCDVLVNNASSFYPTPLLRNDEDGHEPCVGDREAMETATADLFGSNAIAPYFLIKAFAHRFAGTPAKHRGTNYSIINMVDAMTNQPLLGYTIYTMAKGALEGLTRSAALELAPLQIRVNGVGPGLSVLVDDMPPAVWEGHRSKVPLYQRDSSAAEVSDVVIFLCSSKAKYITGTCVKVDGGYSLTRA

[6] = tested on: DHFR (human) versus PTR1 (Leishmania major); assay: Selectivity index, ratio of IC50 for human DHFR to IC50 for Leishmania major PTR1; format: toxicity; conditions: human DHFR enzyme and Leishmania major PTR1 enzyme, read-out: Ratio IC50
[7] = (§2) Cytotoxicity against mouse L929 cells by alamar blue method; format: toxicity, cell-based; conditions: mouse, L929 cells
L929 = assay: as §2; format: toxicity, cell-based; conditions: l929

Compound | IC50 (Leishmania infantum [2]) [µg/mL] | IC50 (Leishmania tropica [4]) [µg/mL] | IC50 (Pteridine reductase 1) [µM] | IC50 (Leishmania infantum [1]) [µg/mL] | IC50 (Leishmania tropica [3]) [µg/mL] | log10 IC50 (µg/mL) (RAW264.7) | IC50 [5] [µg/mL] | selectivity ratio [6] | IC50 [7] [µg/mL] | log10 IC50 (µg/mL) (L929)
CN(C)c1ncc2nc(NC(=O)c3ccc(Cl)c(Cl)c3)sc2n1 | 112 (≈ 304 µM) | 116 (≈ 315 µM) | – | 114 (≈ 310 µM) | 119 (≈ 322 µM) | – | – | – | – | –
CCN(CC)c1ncc2nc(NC(=O)c3ccc(Cl)cc3Cl)sc2n1 | 123 (≈ 310 µM) | 120 (≈ 303 µM) | – | 124 (≈ 312 µM) | 125 (≈ 315 µM) | – | – | – | – | –
O=C(Nc1nc2cnc(N3CCCCC3)nc2s1)c1ccc(Cl)c([N+](=O)[O-])c1 | 64 (≈ 153 µM) | 56.8 (≈ 136 µM) | – | 63.5 (≈ 152 µM) | 56.7 (≈ 135 µM) | – | – | – | – | –
O=C(Nc1nc2cnc(Cl)nc2s1)c1ccc(Cl)c(Cl)c1 | 14.1 (≈ 39.3 µM) | 14.8 (≈ 41.1 µM) | – | 14.4 (≈ 40 µM) | 15.1 (≈ 41.9 µM) | – | – | – | – | –
CCOC(=O)N1CCN(c2ncc3nc(NC(=O)c4ccc(Cl)cc4Cl)sc3n2)CC1 | > 300 | > 300 | – | > 300 | > 300 | – | – | – | – | –
CCN(CC)c1ncc2nc(NC(=O)c3ccc(Cl)c([N+](=O)[O-])c3)sc2n1 | 15.1 (≈ 37.2 µM) | 15.8 (≈ 38.7 µM) | 254 | 15.3 (≈ 37.6 µM) | 15.6 (≈ 38.2 µM) | 0.65 | 4.47 (≈ 11 µM) | 12.6 | 19.1 (≈ 46.8 µM) | 1.28
CN1CCN(c2ncc3nc(NC(=O)c4ccc(Cl)c([N+](=O)[O-])c4)sc3n2)CC1 | 58.8 (≈ 135 µM) | 51.5 (≈ 119 µM) | – | 60.4 (≈ 139 µM) | 53.8 (≈ 124 µM) | – | – | – | – | –
CC(=O)N1CCN(c2ncc3nc(NC(=O)c4ccc(Cl)cc4Cl)sc3n2)CC1 | 77.7 (≈ 172 µM) | 75 (≈ 166 µM) | – | 78.6 (≈ 174 µM) | 75.8 (≈ 168 µM) | – | – | – | – | –
CC(=O)N1CCN(c2ncc3nc(NC(=O)c4ccc(Cl)c([N+](=O)[O-])c4)sc3n2)CC1 | 35.5 (≈ 76.8 µM) | 34.4 (≈ 74.4 µM) | – | 36.1 (≈ 78.1 µM) | 35.3 (≈ 76.3 µM) | – | – | – | – | –
O=C(Nc1nc2cnc(Cl)nc2s1)c1ccc(Cl)c([N+](=O)[O-])c1 | 30.5 (≈ 82.4 µM) | 30.6 (≈ 82.7 µM) | – | 30.6 (≈ 82.6 µM) | 30.7 (≈ 82.9 µM) | – | – | – | – | –
CN(C)c1ncc2nc(NC(=O)c3ccc(Cl)cc3Cl)sc2n1 | 84.1 (≈ 228 µM) | 86.6 (≈ 235 µM) | – | 81.1 (≈ 220 µM) | 86.2 (≈ 234 µM) | – | – | – | – | –
CC(=O)N1CCN(c2ncc3nc(NC(=O)c4ccc(Cl)c(Cl)c4)sc3n2)CC1 | 126 (≈ 279 µM) | 147 (≈ 326 µM) | – | 127 (≈ 282 µM) | 149 (≈ 331 µM) | – | – | – | – | –

More lines, main results first:

IC50 (Leishmania infantum [2]) [µg/mL] | IC50 (Leishmania tropica [4]) [µg/mL] | IC50 (Pteridine reductase 1) [µM] | Compound | IC50 (Leishmania infantum [1]) [µg/mL] | IC50 (Leishmania tropica [3]) [µg/mL] | log10 IC50 (µg/mL) (RAW264.7) | IC50 [5] [µg/mL] | selectivity ratio [6] | IC50 [7] [µg/mL] | log10 IC50 (µg/mL) (L929)
191 (≈ 528 µM) | 186 (≈ 515 µM) | – | CCN(CC)c1ncc2nc(NC(=O)c3ccc(Cl)cc3)sc2n1 | 189 (≈ 523 µM) | 188 (≈ 520 µM) | – | – | – | – | –
> 300 | > 300 | – | O=C(Nc1nc2cnc(N3CCOCC3)nc2s1)c1ccc(Cl)cc1 | > 300 | > 300 | – | – | – | – | –
> 300 | > 300 | – | CC(=O)N1CCN(c2ncc3nc(NC(=O)c4ccc(Cl)cc4)sc3n2)CC1 | > 300 | > 300 | – | – | – | – | –
44.1 (≈ 108 µM) | 40.3 (≈ 98.2 µM) | – | O=C(Nc1nc2cnc(N3CCOCC3)nc2s1)c1ccc(Cl)c(Cl)c1 | 44.6 (≈ 109 µM) | 41.4 (≈ 101 µM) | – | – | – | – | –
16.8 (≈ 41.1 µM) | 16.3 (≈ 39.9 µM) | – | O=C(Nc1nc2cnc(N3CCCCC3)nc2s1)c1ccc(Cl)cc1Cl | 16.8 (≈ 41.1 µM) | 16.3 (≈ 39.8 µM) | – | – | – | – | –
> 300 | > 300 | – | O=C(Nc1nc2cnc(N3CCCC3)nc2s1)c1ccc(Cl)c(Cl)c1 | > 300 | > 300 | – | – | – | – | –
114 (≈ 315 µM) | 137 (≈ 380 µM) | – | O=C(Nc1nc2cnc(N3CCCC3)nc2s1)c1ccc(Cl)cc1 | 117 (≈ 326 µM) | 141 (≈ 392 µM) | – | – | – | – | –
> 300 | > 300 | – | CN(C)c1ncc2nc(NC(=O)c3ccc(Cl)cc3)sc2n1 | > 300 | > 300 | – | – | – | – | –
52.4 (≈ 117 µM) | 53.9 (≈ 121 µM) | – | CCOC(=O)N1CCN(c2ncc3nc(NC(=O)c4ccc(Cl)cc4)sc3n2)CC1 | 53.5 (≈ 120 µM) | 54.1 (≈ 121 µM) | – | – | – | – | –
25.7 (≈ 63 µM) | 25.1 (≈ 61.6 µM) | – | O=C(Nc1nc2cnc(N3CCCCC3)nc2s1)c1ccc(Cl)c(Cl)c1 | 25.8 (≈ 63.2 µM) | 25.5 (≈ 62.4 µM) | – | – | – | – | –
119 (≈ 317 µM) | 116 (≈ 310 µM) | – | O=C(Nc1nc2cnc(N3CCCCC3)nc2s1)c1ccc(Cl)cc1 | 121 (≈ 324 µM) | 122 (≈ 327 µM) | – | – | – | – | –
91.1 (≈ 222 µM) | 90.3 (≈ 220 µM) | – | O=C(Nc1nc2cnc(N3CCOCC3)nc2s1)c1ccc(Cl)cc1Cl | 90.9 (≈ 222 µM) | 90.6 (≈ 221 µM) | – | – | – | – | –
52.4 (≈ 133 µM) | 51.2 (≈ 130 µM) | – | O=C(Nc1nc2cnc(N3CCCC3)nc2s1)c1ccc(Cl)cc1Cl | 52.6 (≈ 133 µM) | 52 (≈ 132 µM) | – | – | – | – | –
